Like-named read-outs stand apart in the source and are kept apart here.
Columns and labels:
[1] = Spectrometric (UV-metric) pKa; assay type: physicochemical; settings: base; aqueous value by Yasuda-Shedlovsky extrapolation from methanol-water co-solvent; 25.0±0.2° C.; 0.15 M KCl
Experimental: (§1) Crystalline forms of the compound of Formula I, including the crystalline Form I, were analyzed using pKa and LogP. An automated titrator system with an incorporated UV-Vis spectrometer (SiriusT3™, Pion Inc.) was used to acquire the spectrometric and potentiometric data. The optical system consisted of a photodiode array detector with a deuterium lamp and a fiber optic dip probe.
(§2) The titrator module consisted of a temperature controller (by Peltier device with in-situ thermocouple), pH electrode, an overhead stirrer, and motorized dispensers for the automatic delivery of assay titrants and reagents via capillaries. The instrumentation was operated using SiriusT3Control software (V2.0). Data processing and generation of the reported pKa and logP values was carried out using SiriusT3Refine software (V2.0). The titrants used were 0.5 M hydrochloric acid and 0.5 M potassium hydroxide, standardized using potassium hydrogen phthalate. ACS or HPLC grade methanol cosolvent was used for pKa determination. Spectrophotometric experiments were carried out in the presence of a mid-range buffer solution (15 mM di-potassium hydrogen orthophosphate) or Neutral Linear Buffer™ to prevent uncontrolled pH-drift at mid-range pH. For logP assays, ACS or HPLC grade 1-octanol was used as the partition solvent.
All experiments were carried out at a controlled temperature of 25.0±0.2° C. […]

[2] = Potentiometric (pH-metric) LogP and logD profile; assay type: physicochemical; settings: for logP: 25.0±0.2° C.
Experimental: as §1, §2
All experiments were carried out at a controlled temperature of 25.0±0.2° C. The pH range of titration assays is set between pH 2.0 to pH 12.0 unless otherwise stated. Prior to use, 0.5 M KOH base titrant is standardized by the titration of approximately 15 mg of potassium hydrogen phthalate, in triplicate. 0.5 M HCl titrant is subsequently standardized against the base titrant. The assay media for pKa determination is kept at a constant ionic strength of 0.15 M KCl and under argon atmosphere.
0.79 mg of sample was weighed into a 5 mL glass assay vial and titrated in a pH-metric triple titration in the presence of octanol from pH 2.0-12.0 at concentrations of 1.5-0.5 mM. The partition ratios of octanol/water were 0.012:1, 0.038:1 and 0.517:1. LogP was determined by comparing the pKa in water with the apparent pKa in the presence of octanol. The pH-metric logP experiment was conducted at 25.0±0.2° C. A lipophilicity profile (logD vs. pH) of the compound was calculated from the experimentally determined pKa and logP. The logD values are detailed in Table 12.

In the case of COCCOc1cccc([C@@H]2CCN(CCn3cccc3)[C@H](C)[C@H]2COc2ccc3c(c2)C(=O)NC3)c1 [crystalline Form I, (−)-6-{[(trans, trans)-4-[3-(2-methoxyethoxy)phenyl]-2-methyl-1-[2-(1H-pyrrol-1-yl)ethyl]piperidin-3-yl]methoxy}-2,3-dihydro-1H-isoindol-1-one], the pKa [1] is reported as 7.74 ± 0.04, the logD ([2]; 1-octanol/water, pH 5.000) is reported as 1.2 and the logP ([2]; octanol/water, read-out: LogP (Potentiometric), cationic species) is reported as 0.6 ± 0.03. For the same molecule, the logP ([2]; octanol/water, read-out: LogP (Potentiometric), neutral species) was 3.81 ± 0.02, the logD ([2]; octanol/water, pH 1.2, pH 1.200, Stomach pH) was 0.6 and the logD ([2]; octanol/water, pH 6.5, pH 6.500) was 2.55. For the same molecule, the logD ([2]; octanol/water, pH 7.4, pH 7.400, Blood pH) was 3.31, the logD ([2]; octanol/water, pH 1.000) was 0.6 and the logD ([2]; octanol/water, pH 3.000) was 0.61. It also gave a logD ([2]; octanol/water, pH 4.000) of 0.71, a logD ([2]; octanol/water, pH 6.000) of 2.08 and a logD ([2]; octanol/water, pH 7.000) of 3. For the same molecule, the logD ([2]; octanol/water, pH 8.000) was 3.62, the logD ([2]; octanol/water, pH 9.000) was 3.79 and the logD ([2]; octanol/water, pH 10.000) was 3.81. The logD ([2]; octanol/water, pH 11.000) was 3.81 and the logD ([2]; octanol/water, pH 12.000) was 3.81.

From patent US12679825B2, “Crystalline and amorphous forms of a δ-opioid modulator” (Trevena, Inc., priority 2020, dated 2026)
